In patent US9079853B2, “Isatin compounds, compositions and methods for treatment of degenerative diseases and disorders” (MUSC FOUNDATION FOR RESEARCH DEVELOPMENT, priority 2013, dated 2015):

How the values were obtained:
661W or C6 cells [1] = assay: MTT assay, protection against calcium-ionophore A23187; format: cell-based; conditions: 1 μM A23187, 24 h
Description: The compound 3-(4,5-Dimethylthiazol-2-yl)-2,5-diphenyltetrazolium bromide (MTT) is a tetrazolium ion that is reduced to a blue formazan dye via several families of NAD(P)H-dependent oxidoreductases. Formation of the formazan dye from MTT or other related tetrazolium dyes are commonly used as a viability assay even though, in fact, the assay is a metabolic capacity assay.
In this assay, 661W or C6 cells were maintained in DMEM supplemented with 10% FBS. 100 μL of 70,000 cells/mL cells were seeded into each well of 96 well plates using DMEM supplemented with 5% FBS. Cells were then allowed to grow to confluency for 48 hours. The compounds of the invention were added in 2 μL media and calcium-ionophore A23187 was then added in 1 μL for a final concentration of 1 μM and after 24 h, 20 μL of […] MTT were added to each well and the cells were incubated for another 4 h after which 100 μL of 1% SDS in 0.01M aqueous HCl were added to each well and the plates were incubated overnight. Absorbance was measured at […] (background correction). The 1 μM ionophore A23187 caused about 50% loss in MTT signal at 24 h. Protection was calculated as the increase in absorbance of treatment groups normalized to the vehicle control.

661W or C6 cells [2] = assay: XF FCCP-uncoupled oxygen consumption rate assay (IBMX challenge); format: cell-based; conditions: 1 h pretreatment, 600 μM IBMX, 24 h, read-out: XF FCCP OCR (% Ctrl); for activity at 0.001 µM: compound 1 nM;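 on all read-outs here: values normalized to the vehicle control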
Description: The XF FCCP-uncoupled oxygen consumption rate assay assesses mitochondrial capacity by measuring cellular respiration. It was shown that the maximum FCCP-uncoupled oxygen consumption rate (OCR) was a good estimate of maximal mitochondrial capacity (Beeson 2010) and that IBMX treatment of 661W or C6 cells for 24 h caused a loss in maximal uncoupled OCR (Perron 2013). Thus, cells were pretreated with the exemplified compounds for 1 h, added 600 μM IBMX and then measured the uncoupled rate after 24 h. In brief, the OCR measurements were performed using a Seahorse Bioscience XF instrument (Seahorse Bioscience, Billerica, Md.), as previously published (Perron 2013). O2 leakage through the plastic sides and bottom of the plate was accounted for using the AKOS algorithm in the XF software package. Cells were plated on 96- or 24-well custom plates designed for use in the XF and grown to confluency in DMEM+5% FBS (48 h). The medium was then replaced with DMEM+1% FBS for 24 h, along with any treatments.

Balb/c mice = assay: Light model assay (constant light damage, eyedrops); format: in vivo, mouse; conditions: continuous light 7 days, rows of photoreceptors
From the text: The light model assay is generally accepted as a model of age related macular degeneration (AMD). […] In particular, oxidative damage has been detected by immunohistochemistry, detecting the presence of oxidized and tyrosine-phosphorylated proteins as well as the upregulation of endogenous antioxidants such as thioredoxin and glutathione peroxidase. […] Additional indirect evidence for the involvement of oxidative stress in photoreceptor degeneration has been provided by treatment of photodamaged retinas with antioxidants such as dimethylthiourea, or the treatment of N-methyl-N-nitrosourea (MNU)-challenged rats with the antioxidant DHA.
The light model assay was used to further test the therapeutic potential of the compounds of the invention. Photoreceptors from albino animals are very sensitive to constant light, lacking the RPE pigment to protect them. Thus, Balb/c mice were exposed to continuous light for 7 days, which caused loss of about 50% of the photoreceptor cells as measured via histology. To test the potential therapeutic efficacy, eyedrops were formulated in 0.1% Bij 35 in […], applied once or twice daily throughout the period of light exposure, and their effect assessed on the light-induced degeneration of photoreceptor cells morphologically and electrophysiologically, 10 days after the onset of the CL exposure.

[3] = tested on: rd1 mouse retina organ cultures; assay: Retinal degeneration assay, rd1 mouse retinal explants; format: cell-based; conditions: rows of photoreceptors in ONL, explants cultured 11 days
Description: It was reasoned that the compounds' activities would enable them to protect against loss of photoreceptors in retinal degenerative animal models. As a translational bridge between the cell line-based assays and in vivo animal studies, mouse retina organ cultures were utilized. These retinal explants were a powerful ex vivo screening tool, which allowed the testing of photoreceptor cell survival within the retinal network, and the effects of a specific compound were tested like in an in vitro system, without systemic interference. In this assay, the rd1 mouse was utilized. The genotype of the rd1 mouse has a mutation in the β-subunit of the phosphodiesterase gene. […] The genetic deficit and the retinal pathology were very similar to that observed in the patients with βPDE-dependent RP. In these mice, rod photoreceptor degeneration started after postnatal day 10 (P10), progressing rapidly, such that at P21, only 1-2 rows of photoreceptor remained, mainly representing cones. Finally, the rd1 mouse retina was amenable to culturing, replicating both retinal development and degeneration, following the same time course as in vivo. The retinal explants were cultured for 11 days ex vivo. […] At the end of the experiments, tissues were fixed, sectioned and stained with 0.1% toluidine and the numbers of rows of photoreceptors remaining in the outer nuclear layer (ONL) were counted.

[4] = tested on: retinal explants from Ser344ter-3 rats; assay: S334ter assay, retinal explants; format: cell-based, rat; conditions: P12-P17 retinal explants
Description: To further evaluate neuroprotection, certain compounds of the invention were evaluated with the Ser344ter-3 rats in which a truncation in the rhodopsin […] eliminated a phosphorylation site. It has been shown that the Ser344ter-3 rhodopsin was extensively misfolded causing induction of ER stress genes BiP and CHOP (Kroeger 2012). […] Statistically significant protection against loss of photoreceptor cell nuclei was observed (Table 5 below).

Compound	MTT, % protection (661W or C6 cells [1]; compound 1 nM)	activity at 0.001 µM (661W or C6 cells [2]) [%]	further results
CCN1C(=O)C(O)(Cc2cc(OC)c(OC)c(OC)c2)c2cc(C)ccc21 (stereo not shown) [Example 34, 1-ethyl-3-hydroxy-5-methyl-3-(3,4,5-trimethoxybenzyl)indolin-2-one]	82.4%,	94	LD Protection (# of rows) (Balb/c mice; 10 μM eyedrops once per day): 5.47 # of rows
CCCN1C(=O)C(O)(CC(=O)c2c[nH]c3ccccc23)c2cc(Cl)ccc21 (stereo not shown) [Example 31, 3-(2-(1H-indol-3-yl)-2-oxoethyl)-5-chloro-3-hydroxy-1-propylindolin-2-one]	64.2%,	74	rd1 protection (# of rows) ([3]; 10 nM): 10 nM, 2.53 # of rows; LD Protection (# of rows) (Balb/c mice; 1 mM eyedrops once per day): 5.94 # of rows
C#CCCCN1C(=O)C(O)(CC(=O)c2c[nH]c3ccccc23)c2cc(C)ccc21 (stereo not shown) [Example 13, 3-(2-(1H-indol-3-yl)-2-oxoethyl)-3-hydroxy-5-methyl-1-(pent-4-yn-1-yl)indolin-2-one]	–	–	MTT, % protection (661W or C6 cells [1]; compound 100 nM): 79.4%,; LD Protection (# of rows) (Balb/c mice; 1 mM eyedrops once per day): 5.44 # of rows
COc1ccc(O)c(CC2(OC(=O)c3ccccc3)C(=O)N(CCCC(C)C)c3ccc(C)cc32)c1 (stereo not shown) [Example 58, 3-(2-hydroxy-5-methoxybenzyl)-5-methyl-1-(4-methylpentyl)-2-oxoindolin-3-yl benzoate]	–	97	MTT, % protection (661W or C6 cells [1]; compound 100 nM): 100%,; LD Protection (# of rows) (Balb/c mice; 100 μM eyedrops once per day): 6.06 # of rows; s334ter protection (# of rows) ([4]; 50 nM): 50 nM, 2.73 # of rows
COc1cccc(C(=O)CC2(O)C(=O)N(CCCN=[N+]=[N-])c3ccc(C)cc32)n1 (stereo not shown) [Example 28, 1-(3-azidopropyl)-3-hydroxy-3-(2-(6-methoxypyridin-2-yl)-2-oxoethyl)-5-methylindolin-2-one]	–	–	MTT, % protection (661W or C6 cells [1]; compound 1 μM): 65.9%,; LD Protection (# of rows) (Balb/c mice; 1 mM eyedrops once per day): 5.55 # of rows
COc1ccc(CC2(OC(=O)c3ccccc3)C(=O)N(CCCC(C)C)c3ccc(C)cc32)c(O)c1 (stereo not shown) [Example 53, 3-(2-hydroxy-4-methoxybenzyl)-5-methyl-1-(4-methylpentyl)-2-oxoindolin-3-yl benzoate]	100%,	91	–
CCCN1C(=O)C(O)(Cc2cccc(OC)c2)c2cc(C)ccc21 (stereo not shown) [Example 43, 3-hydroxy-3-(3-methoxybenzyl)-5-methyl-1-propylindolin-2-one]	64.8%,	69	–
COc1cc(CC2(OC(=O)c3ccccc3)C(=O)N(CCc3ccccc3)c3ccc(Cl)cc32)cc(OC)c1OC (stereo not shown) [Example 50, 5-chloro-2-oxo-1-phenethyl-3-(3,4,5-trimethoxybenzyl)indolin-3-yl benzoate]	79.2%,	65	–
CCCN1C(=O)C(O)(CC(=O)c2ccc(OC)nc2OC)c2cc(Cl)ccc21 (stereo not shown) [Example 22, 5-chloro-3-(2-(2,6-dimethoxypyridin-3-yl)-2-oxoethyl)-3-hydroxy-1-propylindolin-2-one]	–	–	MTT, % protection (661W or C6 cells [1]; compound 10 nM): 71.8%,; activity at 0.01 µM (661W or C6 cells [2]; compound 10 nM): 76%
CCN1C(=O)C(Cc2cccc(OC)c2)(OC(=O)c2ccccc2)c2cc(Cl)ccc21 (stereo not shown) [Example 40, 5-chloro-1-ethyl-3-(3-methoxybenzyl)-2-oxoindolin-3-yl benzoate]	81.1%,	66	–
CCCCN1C(=O)C(O)(Cc2cc(OC)cc(OC)c2)c2cc(Cl)ccc21 (stereo not shown) [Example 41, 1-butyl-5-chloro-3-(3,5-dimethoxybenzyl)-3-hydroxyindolin-2-one]	–	79	MTT, % protection (661W or C6 cells [1]; compound 1 μM): 66.8%,
COc1ccc(CC2(OC(=O)c3ccccc3)C(=O)N(CCCN3CCOCC3)c3ccc(Cl)cc32)c(O)c1 (stereo not shown) [Example 56, 5-chloro-3-(2-hydroxy-4-methoxybenzyl)-1-(3-morpholinopropyl)-2-oxoindolin-3-yl benzoate]	85.3%,	68	–
CCCCN1C(=O)C(O)(CC(=O)c2ccccn2)c2ccccc21 (stereo not shown) [Example 12, 1-butyl-3-hydroxy-3-(2-oxo-2-(pyridin-2-yl)ethyl)indolin-2-one]	–	–	MTT, % protection (661W or C6 cells [1]; compound 10 μM): 67%,; activity at 10 µM (661W or C6 cells [2]; compound 10uM): 73%; rd1 protection (# of rows) ([3]; 5 μM): 5 μM, 3.19 # of rows; LD Protection (# of rows) (Balb/c mice; 1 mM eyedrops once per day): 5.33 # of rows; s334ter protection (# of rows) ([4]; 1 μM): 1 μM 3.86 # of rows
CCN1C(=O)C(O)(Cc2ccc(OC)cc2)c2cc(C)ccc21 (stereo not shown) [Example 51, 1-ethyl-3-hydroxy-3-(4-methoxybenzyl)-5-methylindolin-2-one]	62.2%,	65	–
CCCN1C(=O)C(Cc2c[nH]c3ccccc23)(OC(=O)c2ccccc2)c2cc(Cl)ccc21 (stereo not shown) [Example 63, 3-((1H-indol-3-yl)methyl)-5-chloro-2-oxo-1-propylindolin-3-yl benzoate]	120%,	78	–
COc1cccnc1CC1(O)C(=O)N(CCc2ccccc2)c2ccc(Cl)cc21 (stereo not shown) [Example 3, 5-chloro-3-hydroxy-3-((3-methoxypyridin-2-yl)methyl)-1-phenethylindolin-2-one]	74.5%,	74.5	–
CCN1C(=O)C(Cc2cccc(OC)c2O)(OC(=O)c2ccccc2)c2cc(Cl)ccc21 (stereo not shown) [Example 59, 5-chloro-1-ethyl-3-(2-hydroxy-3-methoxybenzyl)-2-oxoindolin-3-yl benzoate]	–	92	MTT, % protection (661W or C6 cells [1]; compound 1 μM): 117.4%,; LD Protection (# of rows) (Balb/c mice; 100 μM eyedrops once per day): 5.98 # of rows
